Source: patent US8952024B2, “Herbicidal pyrimidone derivatives” (E I du Pont de Nemours and Company, priority 2009, dated 2015)

What was measured:
Type in all cases: in vivo
[1] = tested on: bermudagrass (Cynodon dactylon); assay: Test B pre-/postemergence plant response
In short: (§1)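 Compound in solvent + surfactant applied pre-em (loam/sand) or post-em (plants 2–18 cm, peat medium); greenhouse hold 13–15 days; visual 0–100 control score.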

[2] = tested on: cocklebur (Xanthium strumarium); assay: Test B pre-/postemergence plant response
In short: as §1

[3] = tested on: corn (Zea mays); assay: Test B pre-/postemergence plant response
In short: as §1

[4] = tested on: giant foxtail (Setaria faberii); assay: Test B pre-/postemergence plant response
In short: as §1

[5] = tested on: green foxtail (Setaria viridis); assay: Test B pre-/postemergence plant response
In short: as §1

[6] = tested on: johnsongrass (Sorghum halepense); assay: Test B pre-/postemergence plant response
In short: as §1

[7] = tested on: kochia (Kochia scoparia); assay: Test B pre-/postemergence plant response
In short: as §1

[8] = tested on: lambsquarters (Chenopodium album); assay: Test B pre-/postemergence plant response
In short: as §1

[9] = tested on: pigweed (Amaranthus retroflexus); assay: Test B pre-/postemergence plant response
In short: as §1

[10] = tested on: ragweed (common ragweed, Ambrosia elatior); assay: Test B pre-/postemergence plant response
In short: as §1

[11] = tested on: soybean (Glycine max); assay: Test B pre-/postemergence plant response
In short: as §1

[12] = tested on: wild oat (Avena fatua); assay: Test B pre-/postemergence plant response
In short: as §1

[13] = tested on: barnyardgrass (Echinochloa crus-galli); assay: Test B flooded paddy test; conditions: for Plant response rating, Barnyardgrass: Flood (flooded paddy test), 13 to 15 days
In short: (§2)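 2-leaf seedlings; pots flooded 3 cm over soil at treatment; cpd dosed into floodwater, depth kept constant. Greenhouse 13–15 d. Visual rating vs untreated controls, 0 = no effect, 100 = complete control.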

[14] = tested on: ducksalad (Heteranthera limosa); assay: Test B flooded paddy test; conditions: for Plant response rating, Ducksalad: Flood (flooded paddy test), 13 to 15 days
In short: as §2

[15] = tested on: rice (Oryza sativa); assay: Test B flooded paddy test; conditions: for Plant response rating, Rice: Flood (flooded paddy test), 13 to 15 days
In short: as §2

[16] = tested on: umbrella sedge (Cyperus difformis); assay: Test B flooded paddy test; conditions: for Plant response rating, Sedge, Umbrella: Flood (flooded paddy test), 13 to 15 days
In short: as §2

[17] = 31 g ai/ha, postemergence, scale 0 to 100, 0 is no effect, 100 is complete control
[18] = 62 g ai/ha, postemergence, 0 is no effect, 100 is complete control, 13 to 15 days
[19] = Postemergence, 125 g ai/ha, visual rating after 13 to 15 days, scale 0 (no effect) to 100 (complete control)
[20] = Postemergence, 250 g ai/ha, scale 0 to 100 (0 no effect, 100 complete control)
[21] = 250 g ai/ha, flooded paddy test, visual rating on 0 to 100 scale (0 no effect, 100 complete control) after 13 to 15 days
[22] = 62 g ai/ha, scale of 0 to 100 where 0 is no effect and 100 is complete control
[23] = 125 g ai/ha, scale 0 to 100, 0 is no effect, 100 is complete control
[24] = Flood, 31 g ai/ha, scale 0 to 100 (0 no effect, 100 complete control)

SMILES: CCOCCn1c(-c2ccccc2)ncc(C(=O)C2=C(O)CCCC2=O)c1=O [Compound 96]
- Plant response rating, Bermudagrass [1, 17]: 80
- Bermudagrass plant response rating (0 to 100 scale) [1, 18]: 95
- Plant response rating, Bermudagrass [1, 19]: 95
- Plant response rating, Bermudagrass [1, 20]: 98
- Plant response rating, Cocklebur [2, 17]: 75
- Cocklebur plant response rating (0 to 100 scale) [2, 18]: 95
- Plant response rating, Cocklebur [2, 19]: 98
- Plant response rating, Cocklebur [2, 20]: 100
- Plant response rating, Corn [3, 17]: 45
- Corn plant response rating (0 to 100 scale) [3, 18]: 60
- Plant response rating, Corn [3, 19]: 65
- Plant response rating, Corn [3, 20]: 80
- Plant response rating, Foxtail, Giant [4, 17]: 65
- Foxtail, Giant plant response rating (0 to 100 scale) [4, 18]: 70
- Plant response rating, Foxtail, Giant [4, 20]: 85
- Plant response rating, Foxtail, Green [5, 17]: 50
- Foxtail, Green plant response rating (0 to 100 scale) [5, 18]: 65
- Plant response rating, Foxtail, Green [5, 20]: 85
- Plant response rating, Johnsongrass [6, 17]: 20
- Johnsongrass plant response rating (0 to 100 scale) [6, 18]: 45
- Plant response rating, Johnsongrass [6, 20]: 80
- Plant response rating, Kochia [7, 17]: 65
- Kochia plant response rating (0 to 100 scale) [7, 18]: 85
- Plant response rating, Kochia [7, 20]: 100
- Plant response rating, Lambsquarters [8, 17]: 90
- Lambsquarters plant response rating (0 to 100 scale) [8, 18]: 98
- Plant response rating, Lambsquarters [8, 20]: 100
- Plant response rating, Pigweed [9, 17]: 90
- Pigweed plant response rating (0 to 100 scale) [9, 18]: 95
- Plant response rating, Pigweed [9, 20]: 100
- Plant response rating, Ragweed [10, 17]: 80
- Ragweed plant response rating (0 to 100 scale) [10, 18]: 80
- Plant response rating, Ragweed [10, 20]: 95
- Plant response rating, Soybean [11, 17]: 65
- Soybean plant response rating (0 to 100 scale) [11, 18]: 75
- Plant response rating, Soybean [11, 20]: 98
- Plant response rating, Oat, Wild [12, 17]: 0
- Oat, Wild plant response rating (0 to 100 scale) [12, 18]: 5
- Plant response rating, Oat, Wild [12, 20]: 30
- Plant response rating, Flood, Barnyardgrass [13, 21]: 85
- Plant response rating, Barnyardgrass [13, 22]: 65
- Plant response rating, Barnyardgrass [13, 23]: 80
- Barnyardgrass plant response rating [13, 24]: 60
- Plant response rating, Flood, Ducksalad [14, 21]: 75
- Plant response rating, Ducksalad [14, 22]: 0
- Plant response rating, Ducksalad [14, 23]: 50
- Ducksalad plant response rating [14, 24]: 0
- Plant response rating, Flood, Rice [15, 21]: 15
- Plant response rating, Rice [15, 22]: 15
- Plant response rating, Rice [15, 23]: 15
- Rice plant response rating [15, 24]: 10
- Plant response rating, Flood, Sedge, Umbrella [16, 21]: 90
- Plant response rating, Sedge, Umbrella [16, 22]: 75
- Plant response rating, Sedge, Umbrella [16, 23]: 85
- Sedge, Umbrella plant response rating [16, 24]: 50
